In US4950602A, “Inhibition of lactate production by pyruvate adducts” (Cornell Research Foundation, Inc., priority 1987, dated 1990):
Entries after “also recorded” stand apart in the source; their conditions may differ.

Experiments:
lactate dehydrogenase = assay: Determination of inactive E.RAP enzyme complex; format: biochemical, rat; conditions: 2 μM initial concentration
[1] = molecular target: T1, mitochondrial pig heart malate dehydrogenase (Sus scrofa, UniProt P00346); assay: Commercial mitochondrial malate dehydrogenase with RAP; format: biochemical; conditions: 20 μM RAP
T1 construct: purchased Boehringer Mannheim Corp. (Indianapolis); host or cells: pig heart
Source text: (§1) Enzymes and enzyme assays. Rabbit muscle glyceraldehyde-3-phosphate dehydrogenase (80 U/mg: ammonium sulfate suspension), rabbit muscle glycerol-3-phosphate dehydrogenase (40 U/mg; ammonium sulfate suspension),beef liver glutamate dehydrogenase (120 U/mg: in 50% glycerol), mitochondrial pig heart malate dehydrogenase (1100 U/mg; in 50% glycerol) and yeast hexokinase (140 U/mg; ammonium sulfate suspension) were purchased from Boehringer Mannheim Corp. (Indianapolis). Beef heart lactate dehydrogenase (280 U/mg) was purchased from Worthington Biochemical Corporation (Freehold, N.J.). Porcine heart L-alanine aminotransferase (130 U/mg), rabbit muscle phosphofructokinase (140 U/mg; ammonium sulfate suspension), bovine heart α-ketoglutarate (8 U/mg) and pyruvate (5 U/mg) dehydrogenase complexes, sodium pyruvate, L-methionine-SR-sulfoximine, DL-vinylglycine, NAD^+, NADH and NAD^+ analogues (3-acetylpyridine, thionicotinamide, and 3-pyridinealdehyde adenine dinucleotides) were purchased from Sigma Chemical Company (St. Louis, Mo.).
(§2) Each of the enzymes was assayed by procedures in which change of absorbance at 340 nm due to NADH was followed essentially as described by Bergmeyer (1974, Methods of Enzymatic Analysis, 2nd Eng. Ed., Verlag Chemie Weinheim Academic Press, N.Y.) with the following exceptions. […]

[2] = system: lactate production from D-glucose in synaptosomes; assay: Lactate production from D-glucose in rat brain synaptosomes; format: cell-based
Experimental: (§3) FIG. 2 is a graphic presentation of inhibition of lactate production from D-glucose by rat brain postnuclear supernatant fraction and by synaptosoms incubated with RAP. Lactate production was determined for a 20-min incubation at 37° C. Values (expressed as % of the control rate) are mean±SD of 3-6 determinations. The control value was 8.1±0.9 nmol of lactate produced/min/mg protein, *P<0.05, **P<0.03 and ***P<0.005vs. control values.
(§4) Postnuclear supernatant fraction (containing the glycolytic enzymes) was prepared from rat brain according to the method of Lai et al (1984, supra). Rat brain synaptosomes were prepared according to the method of Lai et al (1980, Biochem. Pharmacol., 29:141-146). Lactate generated by these preparations in the presence of D-glucose was measured with lactate dehydrogenase as described by Lai et al (1984, supra), except that the concentrations of sodium phosphate buffer and nicotinamide used in the medium were respectively 5 and 20 mM. (In some cases where there was a carry over of appreciable RAP to the assay mix, ten times the recommended amount of lactate dehydrogenase was used and the effectiveness of the enzyme in converting lactate to pyruvate was checked by addition of lactate standards to the cuvette after the initial reaction was over).

phosphofructokinase = assay: Rat brain phosphofructokinase with RAP; format: biochemical; conditions: 20 μM RAP
Experimental: (§5) Each of the enzymes was assayed by procedures in which change of absorbance at 340 nm due to NADH was followed essentially as described by Bergmeyer (1974, Methods of Enzymatic Analysis, 2nd Eng. Ed., Verlag Chemie Weinheim Academic Press, N.Y.) with the following exceptions. Phosphofructokinase was assayed according to the method of Lai et al (1984, J. Neurochem., 42:438-446). NAD^+ -linked isocitrate dehydrogenase was assayed as described by Lai and Clark (1976, Biochem. J., 154:423-432). Pyruvate and α-ketoglutarate dehydrogenase complexes were respectively assayed according to the methods of Lai and Sheu (1985, J. Neurochem., 45:1861-1868) and Lai and Cooper (1986) (J. Neurochem, 47:1376-1386).

hexokinase = molecular target: T2, hexokinase (Rattus norvegicus, UniProt P05708); assay: Rat brain hexokinase with RAP; format: biochemical; conditions: 20 μM RAP
T2 construct: following enzymes in rat brain subcellular fractions: α-ketoglutarate, isocitrate and cytosolic malate dehydrogenases, and hexokinase; from tissue; host or cells: rat brain subcellular fractions
Experimental: as §5

rats = assay: Effects of RAP in vivo, intravenous administration to rats; parameters: species or system rat; conditions: 20 μmole/kg
Experimental: Animals. Brain tissue was obtained from young adult male Wistar rats (45-50 days old). In one series of experiments, rats that had previously been fed ad libidum were anesthetized with 4% halothane and a V-3 cannula was inserted in the femoral vein. The animals were immobilized by taping them to a lead brick. After they had recovered sufficiently, they were injected with the RAP solution. After initial observation for any side-reactions, the rats were untaped and their wounds were closed under anesthesia. The rats were then placed back in their cages for further observation.
The animals survived for 3 weeks before being killed.

pyruvate dehydrogenase = molecular target: T3, pyruvate dehydrogenase (Rattus norvegicus, UniProt P26284+P49432+Q6P6R2); assay: Rat brain pyruvate dehydrogenase with RAP; format: biochemical; conditions: 20 μM RAP
T3 construct: from tissue; host or cells: rat brain
Experimental: as §5

[3] = molecular target: T4, beef heart lactate dehydrogenase (Bos taurus, UniProt Q5E9B1); assay: Inhibition of beef heart lactate dehydrogenase (NADH absorbance at 340 nm); format: biochemical, bovine; conditions: for Relative Activity (%) Beef Heart: 0.24 mM pyruvate, 0.1 mM NADH, pH 7.2, 25° C.
T4 construct: purchased Worthington Biochemical Corporation (Freehold, N.J.); host or cells: beef heart
Source text: as §1, §5
The reaction mixture (1 ml) contained 0.24 mM sodium pyruvate, 0.1 mM
NADH, 100 mM potassium phosphate buffer (pH 7.2) and either purified
bovine heart lactate dehydrogenase (0.01 U) or rat brain homogenate
containing ~0.02 U of lactate dehydrogenase activity; 25° C.
Since APADpyruvate adduct and RAP have a tendency to revert to pyruvate
they were added to the reaction mixture just prior to addition of enzyme.
Because the kinetics obtained with tightbinding inhibitors depends on the
order of addition of substrates and inhibitors the enzyme was always adde
last. Each value is the average of at least 3 determinations. Each of the […]

isocitrate dehydrogenase = molecular target: T5, isocitrate dehydrogenase (Rattus norvegicus, UniProt Q99NA5); assay: Rat brain isocitrate dehydrogenase with RAP; format: biochemical; conditions: 20 μM RAP
T5 construct: following enzymes in rat brain subcellular fractions: α-ketoglutarate, isocitrate; from tissue; host or cells: rat brain subcellular fractions
Experimental: as §5

[4] = molecular target: T6, cytosolic malate dehydrogenase (Rattus norvegicus, UniProt O88989); assay: Rat brain cytosolic (soluble) malate dehydrogenase with RAP; format: biochemical; conditions: 20 μM RAP
T6 construct: following enzymes in rat brain subcellular fractions: α-ketoglutarate, isocitrate and cytosolic malate dehydrogenases; from tissue; host or cells: rat brain subcellular fractions
Experimental: as §5

[5] = system: lactate production from D-glucose in rat brain postnuclear supernatant fraction; assay: Lactate production from D-glucose in rat brain postnuclear supernatants; format: biochemical
Experimental: as §3, §4

glutamate dehydrogenase = molecular target: T7, glutamate dehydrogenase (Rattus norvegicus, UniProt P10860); assay: Rat brain glutamate dehydrogenase with RAP; format: biochemical; conditions: 20 μM RAP
T7 construct: Commercial and rat brain glutamate dehydrogenases; from tissue; host or cells: rat brain
Experimental: as §5

[6] = molecular target: T8, bovine heart pyruvate dehydrogenase complex (Bos taurus, UniProt A7MB35+F1N206+P11966); assay: Purified bovine heart pyruvate dehydrogenase complex with RAP; format: biochemical; conditions: 20 μM RAP
T8 construct: overall NADH-forming activity assayed at 340 nm
Source text: as §1, §2

T4 sequence (Q5E9B1 whole entry): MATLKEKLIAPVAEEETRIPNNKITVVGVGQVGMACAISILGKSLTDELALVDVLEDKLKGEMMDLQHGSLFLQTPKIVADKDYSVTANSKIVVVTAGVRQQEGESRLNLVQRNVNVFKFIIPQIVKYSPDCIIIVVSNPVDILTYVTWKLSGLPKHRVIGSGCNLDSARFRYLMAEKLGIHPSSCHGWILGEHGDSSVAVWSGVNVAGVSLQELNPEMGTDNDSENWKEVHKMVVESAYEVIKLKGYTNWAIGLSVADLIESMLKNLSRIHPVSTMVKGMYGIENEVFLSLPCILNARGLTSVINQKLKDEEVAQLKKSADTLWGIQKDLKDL
T7 sequence (P10860 54-558): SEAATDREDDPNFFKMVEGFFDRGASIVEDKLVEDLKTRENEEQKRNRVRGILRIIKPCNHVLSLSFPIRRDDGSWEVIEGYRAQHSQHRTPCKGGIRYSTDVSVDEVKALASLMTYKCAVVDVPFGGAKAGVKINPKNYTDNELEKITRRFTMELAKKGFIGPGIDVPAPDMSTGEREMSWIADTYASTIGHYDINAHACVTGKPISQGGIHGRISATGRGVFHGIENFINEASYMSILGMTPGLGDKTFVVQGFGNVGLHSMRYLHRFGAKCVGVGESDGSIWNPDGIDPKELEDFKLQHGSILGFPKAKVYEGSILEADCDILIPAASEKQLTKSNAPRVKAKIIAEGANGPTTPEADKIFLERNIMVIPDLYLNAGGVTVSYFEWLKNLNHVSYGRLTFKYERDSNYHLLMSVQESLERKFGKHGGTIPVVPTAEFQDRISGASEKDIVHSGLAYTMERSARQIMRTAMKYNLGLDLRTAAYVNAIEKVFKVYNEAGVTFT
T5 sequence (Q99NA5 28-366): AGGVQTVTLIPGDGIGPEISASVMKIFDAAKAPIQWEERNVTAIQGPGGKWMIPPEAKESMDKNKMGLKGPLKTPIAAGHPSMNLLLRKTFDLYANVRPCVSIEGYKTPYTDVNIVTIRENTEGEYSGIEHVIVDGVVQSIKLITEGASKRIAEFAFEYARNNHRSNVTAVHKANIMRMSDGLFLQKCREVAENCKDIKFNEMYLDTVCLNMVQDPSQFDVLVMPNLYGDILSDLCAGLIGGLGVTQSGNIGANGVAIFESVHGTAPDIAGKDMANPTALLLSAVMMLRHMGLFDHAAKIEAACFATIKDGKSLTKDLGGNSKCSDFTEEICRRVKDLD
T5 sequence (Q68FX0 35-385 partner): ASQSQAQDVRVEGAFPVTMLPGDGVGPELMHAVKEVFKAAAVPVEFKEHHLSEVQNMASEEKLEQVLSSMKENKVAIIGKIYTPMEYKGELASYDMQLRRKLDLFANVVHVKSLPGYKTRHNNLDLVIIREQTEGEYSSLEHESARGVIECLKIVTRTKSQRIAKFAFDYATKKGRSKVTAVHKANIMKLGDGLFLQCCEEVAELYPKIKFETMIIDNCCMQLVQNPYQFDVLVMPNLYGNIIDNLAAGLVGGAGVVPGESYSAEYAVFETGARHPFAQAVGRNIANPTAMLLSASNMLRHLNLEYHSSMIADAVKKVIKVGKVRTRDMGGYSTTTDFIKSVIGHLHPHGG
T5 sequence (P41565 40-393 partner): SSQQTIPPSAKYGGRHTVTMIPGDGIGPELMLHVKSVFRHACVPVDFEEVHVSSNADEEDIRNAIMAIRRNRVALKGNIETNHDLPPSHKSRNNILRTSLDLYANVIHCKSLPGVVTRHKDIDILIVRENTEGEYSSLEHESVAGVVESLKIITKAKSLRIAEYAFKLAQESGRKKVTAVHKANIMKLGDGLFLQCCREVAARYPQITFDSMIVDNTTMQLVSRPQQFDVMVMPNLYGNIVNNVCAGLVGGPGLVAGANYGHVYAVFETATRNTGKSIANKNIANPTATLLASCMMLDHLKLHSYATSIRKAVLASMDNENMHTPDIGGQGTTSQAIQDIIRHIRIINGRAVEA
T2 sequence (P05708 whole entry): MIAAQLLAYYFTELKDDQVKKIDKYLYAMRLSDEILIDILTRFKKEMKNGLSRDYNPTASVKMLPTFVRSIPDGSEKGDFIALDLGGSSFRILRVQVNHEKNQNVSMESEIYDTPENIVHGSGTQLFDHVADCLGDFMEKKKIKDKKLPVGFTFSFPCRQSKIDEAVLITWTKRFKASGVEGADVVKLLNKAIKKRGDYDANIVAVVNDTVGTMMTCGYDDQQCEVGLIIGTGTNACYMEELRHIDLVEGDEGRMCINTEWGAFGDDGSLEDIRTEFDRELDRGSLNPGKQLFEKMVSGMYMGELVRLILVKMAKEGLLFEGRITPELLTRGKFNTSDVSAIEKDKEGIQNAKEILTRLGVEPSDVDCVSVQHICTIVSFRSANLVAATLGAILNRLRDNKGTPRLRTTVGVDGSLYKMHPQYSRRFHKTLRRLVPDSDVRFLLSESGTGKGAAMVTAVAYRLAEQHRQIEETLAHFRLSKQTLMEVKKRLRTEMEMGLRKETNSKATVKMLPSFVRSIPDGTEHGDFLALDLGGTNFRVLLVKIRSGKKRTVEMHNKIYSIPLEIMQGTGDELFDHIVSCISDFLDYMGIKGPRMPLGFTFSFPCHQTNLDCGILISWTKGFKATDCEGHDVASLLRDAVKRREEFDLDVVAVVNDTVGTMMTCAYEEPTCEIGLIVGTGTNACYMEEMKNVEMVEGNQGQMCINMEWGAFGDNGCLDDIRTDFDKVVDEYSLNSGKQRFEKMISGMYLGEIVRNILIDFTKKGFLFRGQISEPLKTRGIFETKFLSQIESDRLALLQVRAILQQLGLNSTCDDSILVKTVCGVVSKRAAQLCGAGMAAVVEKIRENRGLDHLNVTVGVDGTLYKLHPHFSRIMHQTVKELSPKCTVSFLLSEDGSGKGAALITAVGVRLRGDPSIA
T6 sequence (O88989 whole entry): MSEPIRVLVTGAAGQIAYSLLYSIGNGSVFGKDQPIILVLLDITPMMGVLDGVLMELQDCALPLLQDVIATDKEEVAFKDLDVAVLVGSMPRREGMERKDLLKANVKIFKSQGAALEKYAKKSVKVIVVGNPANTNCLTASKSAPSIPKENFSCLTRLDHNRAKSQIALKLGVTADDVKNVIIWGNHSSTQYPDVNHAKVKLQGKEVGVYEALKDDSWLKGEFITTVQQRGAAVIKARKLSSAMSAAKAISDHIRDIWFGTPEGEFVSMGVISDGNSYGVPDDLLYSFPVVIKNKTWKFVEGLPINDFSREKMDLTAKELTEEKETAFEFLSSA
T3 sequence (P26284 30-390): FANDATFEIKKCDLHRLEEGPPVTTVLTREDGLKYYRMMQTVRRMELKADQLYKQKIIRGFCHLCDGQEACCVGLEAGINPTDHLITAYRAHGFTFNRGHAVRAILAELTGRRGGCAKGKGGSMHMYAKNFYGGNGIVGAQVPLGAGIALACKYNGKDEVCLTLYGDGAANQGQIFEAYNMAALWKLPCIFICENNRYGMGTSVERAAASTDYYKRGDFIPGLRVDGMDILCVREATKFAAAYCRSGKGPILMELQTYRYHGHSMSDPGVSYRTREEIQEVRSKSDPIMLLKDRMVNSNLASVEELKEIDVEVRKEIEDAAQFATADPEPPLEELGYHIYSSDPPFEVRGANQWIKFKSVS
T3 sequence (P49432 31-359): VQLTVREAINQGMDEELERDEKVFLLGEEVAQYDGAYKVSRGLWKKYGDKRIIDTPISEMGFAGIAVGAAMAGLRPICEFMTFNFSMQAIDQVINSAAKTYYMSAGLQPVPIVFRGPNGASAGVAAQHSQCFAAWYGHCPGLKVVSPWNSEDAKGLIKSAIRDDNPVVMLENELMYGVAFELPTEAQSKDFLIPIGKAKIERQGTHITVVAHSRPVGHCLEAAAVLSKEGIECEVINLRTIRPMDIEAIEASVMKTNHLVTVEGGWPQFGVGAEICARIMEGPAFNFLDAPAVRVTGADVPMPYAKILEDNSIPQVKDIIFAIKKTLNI
T3 sequence (Q6P6R2 36-509): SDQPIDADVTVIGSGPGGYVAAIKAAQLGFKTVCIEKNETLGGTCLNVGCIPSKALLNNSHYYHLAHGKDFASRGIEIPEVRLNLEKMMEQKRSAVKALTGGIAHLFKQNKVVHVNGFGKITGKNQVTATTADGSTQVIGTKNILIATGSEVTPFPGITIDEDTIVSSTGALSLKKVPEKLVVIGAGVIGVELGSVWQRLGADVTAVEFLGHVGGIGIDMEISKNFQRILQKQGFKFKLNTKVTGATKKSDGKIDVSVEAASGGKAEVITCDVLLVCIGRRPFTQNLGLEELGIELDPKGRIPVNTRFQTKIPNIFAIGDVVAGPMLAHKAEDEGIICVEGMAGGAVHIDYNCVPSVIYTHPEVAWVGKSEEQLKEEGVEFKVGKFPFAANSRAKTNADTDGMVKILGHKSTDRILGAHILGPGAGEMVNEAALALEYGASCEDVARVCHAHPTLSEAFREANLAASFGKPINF
T1 sequence (P00346 25-338): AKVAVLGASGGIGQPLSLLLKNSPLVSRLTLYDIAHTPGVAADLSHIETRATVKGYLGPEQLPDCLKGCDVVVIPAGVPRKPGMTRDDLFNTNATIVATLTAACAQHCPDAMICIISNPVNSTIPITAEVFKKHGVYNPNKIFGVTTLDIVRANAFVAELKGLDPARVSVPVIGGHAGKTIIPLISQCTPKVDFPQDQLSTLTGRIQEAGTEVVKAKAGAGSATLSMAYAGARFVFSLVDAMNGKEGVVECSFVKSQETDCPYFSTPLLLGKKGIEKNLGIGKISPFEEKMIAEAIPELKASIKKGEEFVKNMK

## Nc1ncnc2c1ncn2[C@@H]1O[C@H](COP(=O)(O)OP(=O)(O)OC[C@H]2O[C@@H](N3C=CC(CC(=O)C(=O)O)C(C=O)=C3)[C@H](O)[C@@H]2O)[C@@H](O)[C@H]1O (stereo partly drawn) [RAP, 3(-4-(reduced 3-pyridinealdehyde-adeninedinucleotide))-pyruvate]
Lactate dehydrogenase
  enzyme tied up as the inactive E.RAP complex: approximately 90%
[1]
  inhibition at 20 µM: ≤ 20%
[2]
  inhibition of lactate production from glucose in synaptosomes compared with rat brain extracts: less effective
[2]; initial concentrations of 250-500 μM
  inhibition of lactate production in synaptosomes: 15-30%
phosphofructokinase
  effect on rat brain phosphofructokinase: similarly unaffected
hexokinase
  effect on rat brain hexokinase: similarly unaffected; also recorded: did not inhibit
rats
  side effects as judged by gross inspection of behavior: no noticeable untoward effects; also recorded: no side effects were noted
  survival before being killed: 3 weeks
rats; 3 weeks
  growth and feeding after injection: grew and fed normally
rats; after 3 weeks
  gross post-mortem examination: no obvious tissue damage
Pyruvate dehydrogenase
  effect on rat brain pyruvate dehydrogenase: little or no effect
[3]; Ki for the A form, A isomer at the 4 position, taken as half of the mixture, calculated from Table 1 data
  Ki: 1.3 nM
[3]; Ki, calculated from Table 1 data with Km for NADH 2.5 μM, standard equation for a competitive inhibitor
  Ki: 2.6 nM
[3]; additive 42 nM
  Relative Activity (%) Beef Heart: 79%
[3]; additive 84 nM
  Relative Activity (%) Beef Heart: 58%
[3]; additive 132 nM
  Relative Activity (%) Beef Heart: 40%
[3]; additive 180 nM
  Relative Activity (%) Beef Heart: 29%
[3]; from Table 1
  potency as inhibitor of lactate dehydrogenase relative to the NAD-pyruvate adduct: ~ 1000 fold
[3]; suggested by the 2.4 mM pyruvate finding
  type of inhibition with respect to pyruvate: noncompetitive inhibitor with respect to pyruvate
Isocitrate dehydrogenase
  effect on rat brain isocitrate dehydrogenase: little or no effect; also recorded: did not inhibit
[4]
  effect on rat brain cytosolic (soluble) malate dehydrogenase: little or no effect; also recorded: did not inhibit
[5]
  inhibition of lactate production from glucose in rat brain extracts: strongly inhibited
[5]; rat brain postnuclear supernatants, D-glucose
  concentrations at which lactate production is inhibited in a concentration-dependent manner: higher than 200 nM
[5]; rat brain postnuclear supernatants, D-glucose, 20-min incubation at 37° C., true concentration lower since RAP dissociates, read-out: formal "concentration" required to inhibit lactate production by 50%
  IC50: 1000 to 9000 nM
Glutamate dehydrogenase
  effect on rat brain glutamate dehydrogenase: little or no effect
  inhibition at 20 µM: ≤ 20%
[6]
  effect on purified bovine heart pyruvate dehydrogenase complex: nor did 20 μM RAP inhibit
